Test results taken from US10273262B2, “Crystalline form A of obeticholic acid and preparation method thereof” (CRYSTAL PHARMATECH CO., LTD., priority 2014, dated 2019).

Conditions: ethyl acetate and n-heptane 1:9, 25° C., 500 rpm, 24 hours
From the text: X-ray powder diffraction pattern in the present invention was acquired by a Panalytical Empyrean X-ray powder diffractometer. The parameters of the X-ray powder diffraction method of the present invention were as follows: • X-ray Reflection: Cu, Kα • Kα1 (Å): 1.540598; Kα2 (Å): 1.544426 • Kα2/Kα1 intensity ratio: 0.50 • Voltage: 45 (kV) • Current: 40 (mA) • Scan range: from 3.0 degree to 40.0 degree The pattern of differential scanning calorimetry (DSC) in the present invention was acquired by a TA Q200. The parameters of the differential scanning calorimetry (DSC) method of the present invention were as follow: • Heating rate: 10° C./min • Purge gas: nitrogen. The pattern of thermal gravimetric analysis (TGA) in the present invention was acquired by a TA Q5000. The parameters of the thermal gravimetric analysis (TGA) method of the present invention were as follow: • Heating rate: 10° C./min; • Purge gas: nitrogen.
The suspension was stirred at 500 rpm in a thermostat at 25° C. for 24 hours, and centrifuged to give a solid which was tested by XRPD.

Crystal form after stirring the suspension (form conversion by XRPD): transferred to crystalline Form A
SMILES: CC[C@H]1[C@@H](O)[C@@H]2[C@H](CC[C@]3(C)[C@@H]([C@H](C)CCC(=O)O)CC[C@@H]23)[C@@]2(C)CC[C@@H](O)C[C@@H]12 [Form C, obeticholic acid]
